Patent publication US10413535B2, “Pharmaceutical compositions comprising an integrin ALPHA4 antagonist for use in treating ocular inflammatory conditions” (AXEROVISION, INC., priority 2015, dated 2019)

Key:
[1] = system: non-α4 integrins, including LFA-1; settings: cited from earlier work
[2] = target: T1, α4β1-CS-1 (Homo sapiens, UniProt P05556+P13612); test: CS-1 cell adhesion assay, Jurkat J6 cells; assay type: cell-based; settings: J6 cells to CS-1; read-out: Inhibition of cell adhesion (IC50)
T1 construct: characterized in human J6 cells which express VLA-4; endogenous in cells; host or cells: Jurkat J6 cells (human lymphoblast cell line)
Procedure: Jurkat J6 cells (human lymphoblast cell line) were grown as a suspension culture in RPMI 1640 supplemented with FCS (10%) and glutamine (2 mM). RPMI8866 cells (human B lymphoid cell line) were grown as a suspension culture in RPMI 1640 supplemented with FCS (10%) and glutamine (2 mM). RBL-2H3 cells (rat basophilic cell line) were cultured in Eagle's MEM plus Earles salts supplemented with 2 mM L-glutamine, 1 mM sodium pyruvate, 1× non-essential amino acids, 1 mM Na pyruvate 10% heat inactivated foetal calf serum.
Polystyrene 96-well microtitre plates were coated with CS-1 (connecting segment 1, a cell attachment domain of fibronectin) at a concentration of 0.01 mg/mL in bicarbonate buffer overnight at 4° C. The solution was aspirated and the plates washed twice with PBS. The plates were then incubated at room temperature in the presence of 3% BSA for 60 min, ‘flicked’ to expel the BSA and washed twice in bicarbonate buffer. J6 or RPMI cells (as required) were labelled with the fluorescent dye BCECF-AM (10 μM and 6×10^6 cells/mL) for 10 min at 37° C. before the excess was removed by centrifugation at 500 g for 5 min and the cells resuspended at a cell concentration of 1.2×10^7 cells/mL in HBSS. Equal volumes of HBSS containing the compound of formula I (over concentration range 19.0 pM to 5 μM) and cells were added to the CS-1 coated plates. […] The plates were counted in a Wallac Viktor.

[3] = system: 53 receptors and 4 transporters; test: MDS Pharma screen, radioligand binding assays; settings: at 10 μM

T1 sequence (P13612 34-1032): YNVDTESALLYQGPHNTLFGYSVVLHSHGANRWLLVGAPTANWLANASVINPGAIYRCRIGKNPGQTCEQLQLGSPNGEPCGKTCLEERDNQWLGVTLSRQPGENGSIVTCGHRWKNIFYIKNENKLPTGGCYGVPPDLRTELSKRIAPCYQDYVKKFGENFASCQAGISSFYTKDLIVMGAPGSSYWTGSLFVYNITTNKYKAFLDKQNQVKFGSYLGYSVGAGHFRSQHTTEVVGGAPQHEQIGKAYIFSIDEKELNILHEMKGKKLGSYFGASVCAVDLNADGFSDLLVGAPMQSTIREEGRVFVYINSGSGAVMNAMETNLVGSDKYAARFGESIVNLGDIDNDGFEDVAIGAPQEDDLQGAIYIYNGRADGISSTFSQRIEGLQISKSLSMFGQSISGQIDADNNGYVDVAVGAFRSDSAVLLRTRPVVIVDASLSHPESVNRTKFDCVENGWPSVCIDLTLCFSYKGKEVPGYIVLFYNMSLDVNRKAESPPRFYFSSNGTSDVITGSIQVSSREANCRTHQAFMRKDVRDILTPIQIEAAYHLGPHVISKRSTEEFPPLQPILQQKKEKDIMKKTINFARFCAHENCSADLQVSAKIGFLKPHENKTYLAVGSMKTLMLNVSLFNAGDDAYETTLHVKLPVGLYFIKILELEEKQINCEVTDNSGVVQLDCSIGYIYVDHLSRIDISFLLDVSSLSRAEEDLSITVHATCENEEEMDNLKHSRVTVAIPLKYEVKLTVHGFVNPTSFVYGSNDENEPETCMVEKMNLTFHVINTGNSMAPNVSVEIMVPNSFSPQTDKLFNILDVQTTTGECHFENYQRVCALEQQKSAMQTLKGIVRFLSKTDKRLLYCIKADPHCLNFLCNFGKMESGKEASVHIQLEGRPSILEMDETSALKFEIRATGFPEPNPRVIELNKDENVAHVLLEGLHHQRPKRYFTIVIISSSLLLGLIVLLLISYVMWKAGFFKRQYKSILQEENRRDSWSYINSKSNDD
T1 sequence (P05556 21-798): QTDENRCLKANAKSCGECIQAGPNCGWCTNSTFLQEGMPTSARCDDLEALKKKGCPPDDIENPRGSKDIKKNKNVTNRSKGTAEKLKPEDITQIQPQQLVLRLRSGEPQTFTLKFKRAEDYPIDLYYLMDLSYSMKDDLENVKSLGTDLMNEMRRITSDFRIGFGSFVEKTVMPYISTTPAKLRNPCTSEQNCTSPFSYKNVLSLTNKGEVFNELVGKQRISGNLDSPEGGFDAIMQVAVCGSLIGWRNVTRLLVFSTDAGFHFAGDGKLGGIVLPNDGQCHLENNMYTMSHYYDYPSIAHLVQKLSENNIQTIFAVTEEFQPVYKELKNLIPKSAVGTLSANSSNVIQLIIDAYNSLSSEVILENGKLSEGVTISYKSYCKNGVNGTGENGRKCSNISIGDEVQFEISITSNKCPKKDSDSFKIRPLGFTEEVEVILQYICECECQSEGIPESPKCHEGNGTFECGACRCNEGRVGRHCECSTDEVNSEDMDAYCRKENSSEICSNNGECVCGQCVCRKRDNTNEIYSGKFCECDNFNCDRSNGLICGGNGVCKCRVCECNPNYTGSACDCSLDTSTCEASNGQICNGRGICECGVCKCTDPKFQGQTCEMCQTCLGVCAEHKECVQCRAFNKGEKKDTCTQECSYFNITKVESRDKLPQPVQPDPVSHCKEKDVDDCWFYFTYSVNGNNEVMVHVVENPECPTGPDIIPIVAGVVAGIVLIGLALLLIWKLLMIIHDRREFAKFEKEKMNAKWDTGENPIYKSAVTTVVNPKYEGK

Cc1ccccc1OCC(=O)N[C@@H](CC(C)C)C(=O)N[C@@H](Cc1ccc(OC(=O)N2CCC(C(N)=O)CC2)cc1)C(=O)O [GW559090, (2S)-3-[4-({[4-(Aminocarbonyl)-1-piperidinyl]carbonyl}oxy)phenyl]-2-[((2S)-4-methyl-2-{[2-(2-methylphenoxy)acetyl]amino}pentanoyl)amino]propanoic acid]
Selectivity vs. non-α4 integrins [1]: highly selective
IC50 [2]: 8.04 nM
Inhibition in radioligand binding assays [3]: No significant inhibition
